The values below come from patent publication US6979675B2, “Treatment of cancer with 2-deoxyglucose” (Threshold Pharmaceuticals, Inc., priority 2003, dated 2005).

pIC50: −log10 of the molar value.

Series [1] relates to MiaPaCa-2 pancreatic carcinoma. In words: MTS growth inhibition assay, single agent studies. The settings on record: Homo sapiens, MIA PaCa-2, 72 h; 3 days in culture; 11 mM glucose medium. The class given is cell-based. The protocol:
(§1) Human tumor cell lines MiaPaCa-2 pancreatic carcinoma (mutant ras, gemcitabine sensitive) and HT-29 colon carcinoma (polyposis type, mutant p53 and APC, chemosensitive) were purchased from the ATCC (Rockville, Md.). […] Cells grown to 70% confluency were trypsinized and resuspended into cell culture medium at a concentration of 10^5 cells/ml. On Day 0 of the experiment, a […] aliquot of tumor cells was plated into internal wells of a 96-well microtiter plate at an appropriate density (in the range of 2×10^3 to 10^4 cells/well). The cells were incubated for 24 hours to allow maximum adhesion prior to exposure with test agents. […] The starting concentration and the test range of 5-FU were determined empirically for each cell line. Treatment with 5-FU started on Day 1. There were 6 replicates for each dose determination. Both drugs were added once without the medium change. After 3 days in culture, the number of proliferating cells was measured by the MTS assay described below. The test was repeated twice to quantify growth inhibitory activity. […] IC50 values were generated from two separate experiments. […] The MTS reagent is a tetrazolium compound and an electron coupling reagent. The MTS tetrazolium compound is bioreduced by cells into a colored formazan product soluble in cell culture medium. The conversion is catalyzed by NADPH or NADH produced by dehydrogenase enzymes in metabolically active cells. The MTS assay is a colorimetic assay based upon the ability of viable cells to convert […] to formazan; the quantity of formazan product, as measured by the 490 nm absorbance, is directly proportional to the number of viable cells in culture. An automated procedure determines the IC50 value. Exponentially growing cells in […] of cell culture medium are plated on Day 0 in 96-well microtiter plates at a concentration of 10^4 cells/well. […] At the end of the designated time period, 100 microL of growth medium is removed. […] Absorbance is documented on a Dynex HD microplate reader at a wavelength of 490 nm. The data was calculated as percent growth inhibition, wherein 0% represents the mean value in wells to which only vehicle (cell culture medium) was added. The % Growth Inhibition was calculated as follows: % Growth Inhibition=(1−(ODtest/ODvehicle)×100, where ODtest is the optical density of the tested sample, and ODvehicle is the optical density of the vehicle in which each respective drug is dissolved. […] To determine the interaction, there must be a significant difference that exists between the combination absorbance values and both endpoint values. For example, if the values are statistically (p<0.05) above or below the absorbance values of either agent tested alone, then antagonism or synergy is described. […]

The test system of series [2] is HT-29 colon carcinoma. Kind of series: MTS growth inhibition assay, single agent studies. Particulars: Homo sapiens, HT-29, 72 h; 3 days in culture; 11 mM glucose medium. The series is classed as cell-based. The protocol:
as §1
On the technique in general: Tetrazolium dyes change colour on reduction, which living cells bring about.

For series [3] the following is noted: dog, in vivo.

For `O=CC[C@@H](O)[C@H](O)[C@H](O)CO` [2-DG, 2-deoxy-D-glucose], the values for the pIC50 in series [1] and in series [2] were 2.58 and 2.01, respectively. Moreover, the “visible signs of toxicity, multiple dose (5-day)” value in series [3] is reported as “no visible signs of toxicity”. Moreover, the “tolerability, single oral doses” value in series [3] (po) is on record as “well tolerated”. In addition, in series [3] (po, 1 h), the “toxicity, single oral dose” value is “emesis at 1 hour but no other visible toxicity”.
